Ten compounds from patent US11944593B2, “Myrcene-containing complex mixtures targeting TRPV1” (GBS GLOBAL BIOPHARMA, INC., priority 2017, dated 2024) can be followed below.

Holding throughout (format): cell-based
In assay [1] the target is T1, TRPV1 (Rattus norvegicus, UniProt O35433).
T1 construct: FLAG; expressed in transfected cells; host or cells: TRex HEK293 (HEK293 stably carrying pcDNA6TR), induced with tetracycline
In words: TRPV1-mediated calcium flux (Fluo-4) in HEK cells inducibly expressing TRPV1. The note with it: for calcium flux (Fluo-4 RFU) in TRPV1-expressing HEK cells: stimulus applied to cell culture medium, mixtures at Table 1 concentrations; for suppression of later calcium response by pre-incubation (desensitization): 24 hours pre-incubation with the same compound; for AUC of calcium response curve, first application: AUC (between 20-300 nM), compound first introduced to TRPV1-expressing cells; for concentration inducing calcium influx to a similar degree (by AUC): AUC between 20 and 300 nM of calcium response curves; for AUC of calcium response after 24 hours incubation with the same compound: cells incubated with compound for 24 hours, then re-stimulated. The protocol:
The HEK293 cell line was stably transfected with the pcDNA6TR (Invitrogen, CA) plasmid (encoding the tetracycline-sensitive TREx repressor protein), and was maintained in DMEM+10% fetal bovine serum (inactivated at 55° C. for 1 h)+2 mM glutamine in humidified 5% CO2 atmosphere at 37° C. Selection pressure on the TRex 293 cells was maintained by continuous culture in 10 μg/ml Blasticidin (Sigma, St Louis, Mo.).
For production of TRex HEK293 cells with inducible expression of TRPV1, parental cells were electroporated with the rat TRPV1 cDNA in the pcDNA4TO vector and clonal cell lines were selected by limiting dilution in the presence of 400 μg/ml zeocin (Invitrogen, CA). TRPV1 expression was induced using 1 μg/ml tetracycline for 16 h at 37° C.
(§1) Calcium responses mediated by TRPV1 were tested by calcium assay in the cell culture system. Cells were washed and incubated with 0.2 μM fluo-4 acetoxymethyl ester (“Fluo-4”) for 30 minutes at 37° C. in a standard modified Ringer's solution of the following composition (in mM): NaCl 145, KCl 2.8, CsCl 10, CaCl2 10, MgCl2 2, glucose 10, Hepes.NaOH 10, pH 7.4, 330 mOsm. Cells were transferred to 96-well plates at 50,000 cells/well and stimulated as indicated. Calcium signals were acquired using a Flexstation 3 (Molecular Devices, Sunnydale, USA). Data was analyzed using SoftMax® Pro 5 (Molecular Devices). Where indicated, nominally calcium-free external conditions were achieved by the preparation of 0 mM CaCl2 Ringer solution containing 1 mM EGTA. Where indicated, capsaicin (10 μM) and ionomycin (500 nM) were used as positive controls to induce calcium responses. Capsazepine (10 μM) was used where indicated to specifically antagonize TRPV1-mediated calcium responses. Where indicated, baseline traces (no stimulation, NS) were subtracted. Where indicated, vehicle alone traces were subtracted. Where indicated, vehicle comprising various diluents matched to corresponding mixtures was used as a negative control.

A further assay has as its system HEK wild type cells. Put plainly: Calcium flux (Fluo-4) in wild-type HEK cells without TRPV1 construct. The note with it: same stimulus conditions as TRPV1-expressing cells. The procedure: as §1
The target in assay [2] is T1, TRPV1. Put plainly: Whole-cell patch clamp in single HEK293 cells overexpressing TRPV1. The settings on record: for inward current: average of 6 independent experiments; for outward current relative to inward current: then 1 μM capsaicin. The procedure:
HEK293 cells were kept in sodium-based extracellular Ringer's solution containing 140 mM NaCl, 1 mM CaCl2, 2 mM MgCl2, 2.8 mM KCl, 11 mM glucose, and 10 mM HEPES-NaOH, pH 7.2 and osmolarity 300 mOsmol. The cells' cytosol was perfused with intracellular patch pipette solution containing 140 mM Cs-glutamate, 8 mM NaCl, 1 mM MgCl2, 3 mM MgATP, and 10 mM HEPES-CsOH. The standard internal Ca^2+ concentration was buffered to 180 nM with 4 mM Ca and 10 mM BAPTA. The level of free unbuffered Ca was adjusted using the calculator provided with WebMaxC (http://www.stanford.edu/˜cpatton/webmaxcS.htm). The pH of the final solution was adjusted to pH 7.2 and osmolarity measured at 300 mOsmol.
1 μM capsaicin was used as a positive control for TRPV1 activation. Rapid extracellular solution application and exchange was performed with the SmartSquirt delivery system (Auto-Mate Scientific, San Francisco). The system includes a ValveLink TTL interface between the electronic valves and the EPC-9 amplifier (HEKA, Lambrecht, Germany). This configuration allows for programmable solution changes via the PatchMaster software (HEKA, Lambrecht, Germany).
Patch-clamp experiments were performed in the whole-cell configuration at 21-25° C. Patch pipettes had resistances of 2-3 MΩ. Data was acquired with PatchMaster software controlling an EPC-9 amplifier. Voltage ramps of 50 ms spanning the voltage range from −100 to 100 mV were delivered from a holding potential of 0 mV at a rate of 0.5 Hz over a period of […]. Voltages were corrected for a liquid junction potential of 10 mV. Currents were filtered at 2.9 kHz and digitized at 100 μs is intervals. Capacitive currents were determined and corrected before each voltage ramp. The development of currents for a given potential was extracted from individual ramp current records by measuring the current amplitudes at voltages of −80 mV and +80 mV. Data were analyzed with FitMaster (HEKA, Lambrecht, Germany), and IgorPro (WaveMetrics, Lake Oswego, Oreg., USA). Where applicable, statistical errors of averaged data are given as mean±s.e.m.
(In general: Patch clamp records ionic current or voltage across a cell membrane.)

Where [3] appears, read: pre-incubation with 500 nM ionomycin.

T1 sequence (O35433 whole entry): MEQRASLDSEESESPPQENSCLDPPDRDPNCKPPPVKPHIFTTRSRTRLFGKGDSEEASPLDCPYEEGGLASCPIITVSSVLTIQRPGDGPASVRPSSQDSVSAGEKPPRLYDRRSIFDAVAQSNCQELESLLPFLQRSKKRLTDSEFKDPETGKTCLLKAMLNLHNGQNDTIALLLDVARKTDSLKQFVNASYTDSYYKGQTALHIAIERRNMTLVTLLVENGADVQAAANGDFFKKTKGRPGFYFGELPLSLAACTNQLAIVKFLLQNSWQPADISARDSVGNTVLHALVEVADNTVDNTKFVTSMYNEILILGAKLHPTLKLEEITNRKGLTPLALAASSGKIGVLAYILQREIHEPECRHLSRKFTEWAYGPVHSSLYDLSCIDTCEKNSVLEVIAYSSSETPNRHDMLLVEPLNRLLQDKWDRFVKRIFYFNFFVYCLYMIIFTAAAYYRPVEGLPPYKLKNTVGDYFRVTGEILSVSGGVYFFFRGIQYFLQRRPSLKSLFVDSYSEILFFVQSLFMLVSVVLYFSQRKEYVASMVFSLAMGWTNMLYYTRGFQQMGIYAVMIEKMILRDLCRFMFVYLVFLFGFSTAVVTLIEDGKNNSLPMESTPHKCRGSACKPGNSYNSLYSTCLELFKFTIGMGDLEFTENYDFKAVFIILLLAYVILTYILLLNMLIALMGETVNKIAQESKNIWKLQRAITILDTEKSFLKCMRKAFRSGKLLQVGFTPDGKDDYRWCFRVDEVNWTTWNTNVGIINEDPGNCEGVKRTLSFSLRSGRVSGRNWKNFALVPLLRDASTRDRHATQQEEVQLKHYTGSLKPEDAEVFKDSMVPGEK

With `CCCCCc1cc(O)c2c(c1)OC(C)(CCC=C(C)C)C=C2` (centres unmarked) [cannabichromene], the “calcium flux (Fluo-4 RFU) in TRPV1-expressing HEK cells” value (“calcium flux (Fluo-4 RFU)” below) at TRPV1 [1] was “calcium flux was detected”. In the assay with HEK wild type cells, the “calcium flux in wild-type HEK cells without TRPV1” value is recorded as “only minimal or absent”.
As for `C=C(C)[C@@H]1CCC(C)=C[C@H]1c1c(O)cc(CCCCC)cc1O` [cannabidiol], at TRPV1 [1], the “calcium flux (Fluo-4 RFU)” value was “calcium flux was detected”. In the assay with HEK wild type cells, the “calcium flux in wild-type HEK cells without TRPV1” value is reported as “only minimal or absent”.
The matching figures for `C=C(C)[C@@H]1CCC(C)=C[C@H]1c1c(O)cc(CCCCC)c(C(=O)O)c1O` [cannabidiolic acid]: “calcium flux was detected” and “only minimal or absent”.
For `C=C(C)[C@@H]1CCC(C)=C[C@H]1c1c(O)cc(CCC)cc1O` [cannabidivarin] the same measures were “calcium flux was detected” and “only minimal or absent”.
Turning to `CCCCCc1cc(O)c(C/C=C(\C)CCC=C(C)C)c(O)c1C(=O)O` [cannabigerolic acid], at TRPV1 [1], the “calcium flux (Fluo-4 RFU)” value is on record as “calcium flux was detected”. In the assay with HEK wild type cells, the “calcium flux in wild-type HEK cells without TRPV1” value is recorded as “only minimal or absent”.
Turning to `COc1cc(CNC(=O)CCCC/C=C/C(C)C)ccc1O` [capsaicin, reference compound], at TRPV1 [1], the “suppression of later calcium response by pre-incubation (desensitization)” value was 69%; the “AUC of calcium response curve, first application” value (“AUC of calcium response curve” below) is reported as 124; the “concentration inducing calcium influx to a similar degree (by AUC)” value is listed as “about 30 nM”; the “AUC of calcium response after 24 hours incubation with the same compound” value came to 38. Also, the “calcium flux (Fluo-4 RFU)” value at TRPV1 [1] is “capsaicin-specific calcium fluxes”. In addition, the current induced at TRPV1 [2] (1 μM capsaicin (not shown)) was 4-10 nA. Besides, the inward current entry at TRPV1 [2] (1 μM capsaicin applied after myrcene) is recorded as “approximately 9 nA”. Besides, the “outward current relative to inward current” value on TRPV1 [2] (5 μM myrcene) is “at a lower amplitude than the inward current”.
For the compound `Oc1cc2c(cc1O)CN(C(=S)NCCc1ccc(Cl)cc1)CCC2` [capsazepine, reference compound], the “effect on calcium flux induced by myrcene” value on TRPV1 [1] (10 μM capsazepine added to cells activated with 3.5 μm/ml myrcene) is on record as “diminished”.
In the case of `C[C@H](CCC(=O)O)C[C@H](C)C[C@H](C)C(=O)/C=C(\O)[C@H](C)C[C@H](C)C/C=C/[C@@H](C)[C@@H](O)[C@@H](C)[C@@H](O)C[C@@H]1CC[C@@](C)([C@H]2CC[C@@](C)([C@@H](C)O)O2)O1` [ionomycin, reference compound], on TRPV1 [1], the “AUC of calcium response curve” value was 128. Besides, on TRPV1 [1] (setting [3]), the “reduction of later calcium influx in response to capsaicin” value is on record as 38% and the “reduction of later calcium influx in response to myrcene” value turned out to be 27%.
Regarding `C=CC(=C)CCC=C(C)C` [myrcene, 7-methyl-3-methylideneocta-1,6-diene], on TRPV1 [1], the “suppression of later calcium response by pre-incubation (desensitization)” value amounted to 52%; the “AUC of calcium response curve” value came to 66; the “concentration inducing calcium influx to a similar degree (by AUC)” value is given as “about 200 nM”; the “AUC of calcium response after 24 hours incubation with the same compound” value worked out at 32. For the same compound, the “calcium flux (Fluo-4 RFU)” value at TRPV1 [1] is “significant calcium flux was detected”. Also, at TRPV1 [1] (myrcene 3.5 μg/ml, calcium-free medium), the “calcium-mediated fluorescence under calcium-free medium conditions, high concentration” value is “induced such increase”. Moreover, at TRPV1 [1] (myrcene 0.43, 0.875 and 1.75 μg/ml, calcium-free medium), the “calcium-mediated fluorescence under calcium-free medium conditions, low concentrations” value is recorded as “did not cause increase of calcium-mediated fluorescence”. Further, the “calcium responses to different concentrations of myrcene” value at TRPV1 [1] (myrcene 3.5 μm/ml, 1.75 μg/ml, 0.875 μm/ml and 0.43 μm/ml) is listed as “dose-dependent”. In the assay on HEK wild type cells, the “calcium flux in wild-type HEK cells without TRPV1” value is “much smaller”. The “outward current relative to inward current” value on TRPV1 [2] (5 μM myrcene) was “at a lower amplitude than the inward current”. The inward current entry on TRPV1 [2] (5 μM myrcene, 1 mM Ca) is listed as “approximately 0.5 nA”. At TRPV1 [2] (5 μM, 10 μM and 150 μM myrcene), the current induced was 0.5-2.2 nA. Besides, the “current response in individual cells to increasing myrcene” value at TRPV1 [2] (5 μM, 10 μM, 150 μM myrcene) is reported as “dose-dependent response”. Further, on TRPV1 [2] (IV relationship, State 1 vs State 2 (dilated)), the “TRPV1 channel permeation state activated” value is reported as “primarily in State 1”.
`C=CC(C)(O)CCC=C(C)CCC=C(C)C` (centres unmarked) [nerolidol]: the “calcium flux (Fluo-4 RFU)” value at TRPV1 [1] is reported as “significant calcium flux was detected”; on TRPV1 [1] (listed as Nerolidol), “more modest agonist activity”.
